Assay results: patent US20230406883A1, “COMPOUNDS AND THEIR USE IN TREATMENT OF TACHYKININ RECEPTOR MEDIATED DISORDERS” (Embark Biotech ApS, priority 2020, published 2023)
“And” between values parts separate entries of the source, which are not always exact repeats. Equal values may be shown once. Numbered stars: 1 amine (or outer) side, 2 acyl side, 3 side chain; on linkers, the order of the positions; unused ones are H or OH. Square brackets hold non-standard residues; d marks the D form. Peptide text beside a SMILES is read from it. * marks the point of attachment. C18 diacid = O=C(O)CCCCCCCCCCCCCCCCC(=O)*; γGlu = O=C(O)[C@H](CCC(=O)[*:2])N[*:1]; NMeL = CN[C@@H](CC(C)C)C(=O)O; hSer = N[C@@H](CCO)C(=O)O; Nle = CCCC[C@H](N)C(=O)O; AEEA = NCCOCCOCC(=O)O

Key:
hNK2R [1] = target: T1, hNK2R (Homo sapiens, UniProt P21452); assay: 3H-NKA competitive binding on transfected COS-7 cells; conditions: competition with 3H-NKA, 4 h at 4 C
T1 construct: host or cells: COS-7
T1 sequence (P21452 1-398): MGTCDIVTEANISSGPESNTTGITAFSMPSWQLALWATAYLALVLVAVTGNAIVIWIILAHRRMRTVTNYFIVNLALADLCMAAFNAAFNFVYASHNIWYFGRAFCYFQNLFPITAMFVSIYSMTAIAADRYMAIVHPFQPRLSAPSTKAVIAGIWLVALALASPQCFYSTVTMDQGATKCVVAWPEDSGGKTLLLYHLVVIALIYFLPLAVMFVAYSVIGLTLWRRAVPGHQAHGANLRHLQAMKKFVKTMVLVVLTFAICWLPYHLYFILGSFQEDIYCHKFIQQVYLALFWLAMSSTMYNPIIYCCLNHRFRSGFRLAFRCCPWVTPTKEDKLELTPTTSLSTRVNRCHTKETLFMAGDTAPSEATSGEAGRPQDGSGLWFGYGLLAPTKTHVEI
Method: (§1) Assays were carried out using COS-7 cells transiently transfected by calcium phosphate transfection with a vector pcDNA3.1(+) encoding one of the indicated receptors (Genscript). Briefly, DNA mixed with CaCl2 (2 M) and TE-buffer (10 mM Tris-HCl, 1 mM EDTA, pH 7.5) was dropwise added to 2×HBS (50 mM HEPES, 280 mM NaCl, 1.5 mM NaH2PO4, pH 7.2) and incubated for 45 min at room temperature (22±2° C.). The mixture and a final concentration of 100 μM Chloroquine were added to the cells and left to incubate for 5 hours at 37° C. under standard cell culture conditions (10% CO2) before changing medium to fresh maintenance medium.
The ^3H-NKA binding assay measures peptide-receptor binding by a competitive principle of receptor binding between radioactively labelled (3H) NKA (tracer) and synthesized peptide ligands on live cells expressing the receptor of interest. Assay solutions used: TKR buffer (50 mM Tris/HCl pH 7.5, 5 mM MnCl2, and 150 mM NaCl), wash buffer (TKR buffer+0.2% w/v OvAlb), binding buffer (wash buffer+0.1 mg/ml Bacitracin), and tracer solution (binding buffer+˜15000 cpm/well ^3H-tracer). The assay was performed on ice the day after transfection.
Briefly, maintenance medium was aspirated, and plates were washed ×1 in cold wash buffer before adding 100 μl cold binding buffer and placing at 4° C. to let plates cool. The cold plates were added indicated peptides (ligand) immediately followed by addition of cold tracer solution (˜15000 cpm/well). Plates were immediately moved to 4° C. and incubated for 4 hours. After incubation, binding was stopped by wash ×2 with cold wash buffer before adding 225 μl Ultima Gold XR. Plates were shaken at medium speed for approximately 30 min and left overnight at room temperature before counting the plates in a MicroBeta plate counter (Perkin Elmer).

[2] = Energy expenditure and weight loss pharmacodynamics in DIO mice; assay type: in vivo; parameters: Energy expenditure efficacy (change relative to vehicle control) / Weight loss efficacy (change relative to vehicle control): concentration or dose not given beside the values; conditions: for Energy expenditure EC50 / Energy expenditure efficacy (change relative to vehicle control) / Weight loss EC50 / Weight loss efficacy (change relative to vehicle control): daily s.c. injections for nine days
Method: Indirect calorimetry was used to evaluate the ability of individual peptide analogues to dose-dependently increase energy expenditure (EE) we used metabolic cages and indirect calorimetry measured by the Promethion system. To this end, oxygen consumption was used as a surrogate measure for EE. Substrate preference (fat or carbohydrate) was evaluated using the respiratory exchange ratio (RER). In parallel, behavioral information such as walking distance and water and food intake were recorded.
Prior to experimentation, DIO mice were transferred to habituation cages for at least 10 days (5 days outside and at least 5 days in the Sable Systems gas analyzer module) to acclimatize. For all in vivo compound tests for EE evaluation, mice received subcutaneous injections between 2 and 4 pm.
Energy expenditure and weight loss pharmacodynamics: To evaluate the ability of individual peptide analogues to dose-dependently increase EE by indirect calorimetry in DIO mice. Body weights were monitored from beginning of habituation until end of experiment. After habituation, mice were treated with daily injections of NKA(4-10) analogues at four different doses or vehicle by daily subcutaneous injections for nine days.
EE increase over vehicle was calculated as percent of mean oxygen consumption over a 30-hour period after injection. Prior to injection peptide analogues were dissolved and diluted in in vivo buffer. In order to take into account, the different half-lives for the compounds tested, the doses for each compound were calculated based on the given compound's individual pk-profiles.

hNK2R [3] = target: T1, hNK2R; assay: Hithunter cAMP assay (Gs-coupling) in transfected COS-7 cells; assay type: cell-based; conditions: COS-7 cells
Method: as §1, with “As a secondary measure of agonist-induced G-protein coupled receptor (GPCR) activation cyclin adenosine monophosphate (cAMP) was measured by the Hithunter cAMP-assay from DiscoverX. Assays” for “Assays”
The cAMP-assay takes advantage of the tachykinin receptors' ability to induce production of the cAMP second messenger upon agonist (ligand) binding on receptor expressing cells. Production of cAMP stems from receptor coupling to Gs-protein although coupling to Gq-protein (IP3-production) is considered the primary signalling mechanism by tachykinin receptors.
The assay was performed the day after transfection. Briefly, maintenance medium was aspirated, and plates were washed ×1 in HBSS before adding assay buffer (HBSS+1 mM IBMX), pre-incubated for 30 min at 37° C. followed by 15 min incubation with agonist (ligand) at 37° C. After incubation, plates were subjected to cell lysis and anti-cAMP-antibody incubation as described by manufacturer. Luminescence was measured with EnVision Multimode Plate Reader from Perkin Elmer.

Row | Compound | EC50 (hNK2R [1]) | Energy expenditure EC50 [2] | Energy expenditure efficacy (change relative to vehicle control) [2] | Weight loss EC50 [2] | Weight loss efficacy (change relative to vehicle control) [2] | EC50 (hNK2R [3]) | hNK2R, cAMP Efficacy (hNK2R [3]) | Reduced weight loss efficacy compared to compound 304, 344 and 383 [2]
1 | CCCC[C@H](NC(=O)[C@H](CC(C)C)N(C)C(=O)CNC(=O)[C@@H](NC(=O)[C@H](Cc1ccccc1)NC(=O)[C@H](CCCCN)NC(=O)[C@H](CC(=O)O)NC(=O)COCCOCCNC(=O)COCCOCCNC(=O)CC[C@H](NC(=O)CCCCCCCCCCCCCCCCC(=O)O)C(=O)O)C(C)C)C(N)=O [compound 304, *Asp;Lys;Phe;Val;Gly;NmLeu;Nle;NH2] | 25 nM | 94 nmol/kg | 11% | 16 nmol/kg | 12% | 2.3 nM | 100% | –
2 | COCC[C@H](NC(=O)[C@H](CC(C)C)N(C)C(=O)CNC(=O)[C@@H](NC(=O)[C@H](Cc1ccc(O)cc1)NC(=O)[C@H](CCCCN)NC(=O)[C@H](CC(=O)O)NC(=O)COCCOCCNC(=O)COCCOCCNC(=O)CC[C@H](NC(=O)CCCCCCCCCCCCCCCCC(=O)O)C(=O)O)C(C)C)C(N)=O [compound 344, *Asp;Lys;Tyr;Val;Gly;NmLeu;Metox;NH2] ({C18 diacid-γGlu-AEEA-AEEA}-DKYVG[NMeL][hSer](Me)-NH2) | 94 nM and 90 nM | 13 nmol/kg | 12% | 130 nmol/kg | 10% | 28 nM | 96% and 100% | –
3 | COCC[C@H](NC(=O)[C@H](CC(C)C)N(C)C(=O)CNC(=O)[C@@H](NC(=O)[C@H](Cc1ccccc1)NC(=O)[C@H](CCCCN)NC(=O)[C@H](CC(=O)O)NC(=O)COCCOCCNC(=O)COCCOCCNC(=O)CC[C@H](NC(=O)CCCCCCCCCCCCCCCCC(=O)O)C(=O)O)[C@@H](C)O)C(N)=O [compound 383, *Asp;Lys;Phe;Thr;Gly;NmLeu;Metox;NH2] ({C18 diacid-γGlu-AEEA-AEEA}-DKFTG[NMeL][hSer](Me)-NH2) | 11 nM | 110 nmol/kg | 11% | 83 nmol/kg | 11% | ~11 nM | 89% | –
4 | CCCC[C@H](NC(=O)[C@H](CC(C)C)N(C)C(=O)CNC(=O)[C@@H](NC(=O)[C@H](Cc1ccc(O)cc1)NC(=O)[C@H](CCCCN)NC(=O)[C@H](CC(=O)O)NC(=O)COCCOCCNC(=O)COCCOCCNC(=O)CC[C@H](NC(=O)CCCCCCCCCCCCCCCCC(=O)O)C(=O)O)C(C)C)C(N)=O [compound 305, *Asp;Lys;Tyr;Val;Gly;NmLeu;Nle;NH2] ({C18 diacid-γGlu-AEEA-AEEA}-DKYVG[NMeL][Nle]-NH2) | 21 nM and 210 nM and ~100 nM | 34 nmol/kg | 11% | 69 nmol/kg | 6% | 0.7 nM and ~0.8 nM | 50% and 70% | approximately 50%
